Reference: ChEMBL document CHEMBL1150323, “Peptomeric analogues of trypsin inhibitor SFTI-1 isolated from sunflower seeds” (Bioorg Med Chem, 2008)
Values belong to the compound of their own block, whether it stands above or below them. Calls of active or inactive are those of the source. The rule behind the calls is not given here. Positions of bridges follow the written chain, without caps; N, C: chain ends. Non-standard residues stand in square brackets, D forms with d. Residues, ends and D or L forms follow the SMILES beside them. Nphe = O=C(O)CNCc1ccccc1; Abu = CC[C@H](N)C(=O)O; Nlys = NCCCCNCC(=O)O

Key:
Bos taurus [1] = species on record: Bos taurus; experiment: Inhibition of bovine alpha chymotrypsin assessed as residual activity by spectrophotometry
[2] = biological target: T1, Serine protease 1 (Bos taurus) (UniProt P00760); experiment: Inhibition of bovine beta trypsin assessed as residual activity by spectrophotometry
T1 sequence (whole entry): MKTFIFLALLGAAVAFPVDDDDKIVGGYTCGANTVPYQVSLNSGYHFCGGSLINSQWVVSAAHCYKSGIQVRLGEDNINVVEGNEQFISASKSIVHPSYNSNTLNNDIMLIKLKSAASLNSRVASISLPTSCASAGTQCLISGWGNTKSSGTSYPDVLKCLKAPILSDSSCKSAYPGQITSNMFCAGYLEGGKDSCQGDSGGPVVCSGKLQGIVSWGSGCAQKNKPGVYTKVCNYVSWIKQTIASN

[3] = Proteolytic stability assessed as trypsin-mediated hydrolysis at pH 8.3 after 24 hrs by RP-HPLC; assay type: ADME; conditions: read-out: Activity
[4] = biological target: T1, Serine protease 1 (Bos taurus); experiment: Inhibition of bovine beta trypsin assessed as residual activity after 40 mins by spectrophotometry
Bos taurus [5] = species on record: Bos taurus; experiment: Inhibition of bovine alpha chymotrypsin assessed as residual activity after 40 mins by spectrophotometry
[6] = Proteolytic stability assessed as half life of trypsin-mediated hydrolysis by RP-HPLC; assay type: ADME
Bos taurus [7] = species on record: Bos taurus; experiment: Inhibition of bovine alpha chymotrypsin assessed as residual activity after 3 hrs by spectrophotometry
[8] = biological target: T1, Serine protease 1 (Bos taurus); experiment: Inhibition of bovine beta trypsin assessed as residual activity after 60 mins by spectrophotometry

Ka (Bos taurus [1]): 3.8 ×10⁸ /M
Compound: CC[C@H](C)[C@@H]1NC(=O)[C@@H]2CCCN2C(=O)[C@@H]2CCCN2C(=O)[C@H]([C@@H](C)CC)NC(=O)[C@H](CO)NC(=O)CN(Cc2ccccc2)C(=O)[C@H]([C@@H](C)O)NC(=O)[C@@H](NC(=O)[C@H](CCCNC(=N)N)NC(=O)CN)CSSC[C@@H](C(=O)N[C@@H](Cc2ccccc2)C(=O)N2CCC[C@H]2C(=O)N[C@@H](CC(=O)O)C(=O)O)NC1=O (H-GRCT[Nphe]SIPPICFPD-OH; disulfide 3-11)

Ka [2]: 1 ×10⁸ /M
Compound: CC[C@H](C)[C@@H]1NC(=O)[C@@H]2CCCN2C(=O)[C@@H]2CCCN2C(=O)[C@H]([C@@H](C)CC)NC(=O)[C@H](CO)NC(=O)CN(CCCCN)C(=O)[C@H]([C@@H](C)O)NC(=O)[C@@H](NC(=O)[C@H](CCCNC(=N)N)NC(=O)CN)CSSC[C@@H](C(=O)N[C@@H](Cc2ccccc2)C(=O)N2CCC[C@H]2C(=O)N[C@@H](CC(=O)O)C(=O)O)NC1=O

metabolised at 24 h [3]: 7%
Compound: CC[C@H](NC(=O)[C@H](CCCNC(=N)N)NC(=O)CN)C(=O)N[C@H](C(=O)N(CC(=O)N[C@@H](CO)C(=O)N[C@H](C(=O)N1CCC[C@H]1C(=O)N1CCC[C@H]1C(=O)N[C@H](C(=O)N[C@@H](CC)C(=O)N[C@@H](Cc1ccccc1)C(=O)N1CCC[C@H]1C(=O)N[C@@H](CC(=O)O)C(=O)O)[C@@H](C)CC)[C@@H](C)CC)Cc1ccccc1)[C@@H](C)O

Ka [4]: 8 ×10⁷ /M
Compound: CC[C@H](C)[C@@H]1NC(=O)[C@@H]2CCCN2C(=O)[C@@H]2CCCN2C(=O)[C@H]([C@@H](C)CC)NC(=O)[C@H](CO)NC(=O)CN(CCCCN)C(=O)[C@H]([C@H](C)O)NC(=O)[C@@H](NC(=O)[C@@H](N)CCCCN)CSSC[C@@H](C(=O)N[C@@H](Cc2ccccc2)C(=O)N2CCC[C@H]2C(=O)N[C@@H](CC(=O)O)C(=O)O)NC1=O

Activity (Bos taurus [1]): inactive
Compound: CC[C@H](NC(=O)[C@H](CCCNC(=N)N)NC(=O)CN)C(=O)N[C@H](C(=O)N[C@@H](Cc1ccccc1)C(=O)N[C@@H](CO)C(=O)N[C@H](C(=O)N1CCC[C@H]1C(=O)N1CCC[C@H]1C(=O)N[C@H](C(=O)N[C@@H](CC)C(=O)N[C@@H](Cc1ccccc1)C(=O)N1CCC[C@H]1C(=O)N[C@@H](CC(=O)O)C(=O)O)[C@@H](C)CC)[C@@H](C)CC)[C@H](C)O

Ka (Bos taurus [5]): 6.2 ×10⁷ /M
Compound: CC[C@@H]1NC(=O)[C@H](CCCNC(=N)N)NC(=O)CNC(=O)[C@H](CC(=O)O)NC(=O)[C@@H]2CCCN2C(=O)[C@H](Cc2ccccc2)NC(=O)[C@H](CC)NC(=O)[C@H]([C@@H](C)CC)NC(=O)[C@@H]2CCCN2C(=O)[C@@H]2CCCN2C(=O)[C@H]([C@@H](C)CC)NC(=O)[C@H](CO)NC(=O)CN(Cc2ccccc2)C(=O)[C@H]([C@H](C)O)NC1=O

half-life [6]: 2.75 h
Ka [2]: 9.9 ×10⁹ /M
Ka (Bos taurus [1]): 4.9 ×10⁶ /M
Compound: CC[C@H](C)[C@@H]1NC(=O)[C@@H]2CCCN2C(=O)[C@@H]2CCCN2C(=O)[C@H]([C@@H](C)CC)NC(=O)[C@H](CO)NC(=O)[C@H](CCCCN)NC(=O)[C@H]([C@@H](C)O)NC(=O)[C@@H](NC(=O)[C@H](CCCNC(=N)N)NC(=O)CN)CSSC[C@@H](C(=O)N[C@@H](Cc2ccccc2)C(=O)N2CCC[C@H]2C(=O)N[C@@H](CC(=O)O)C(=O)O)NC1=O

Ka (Bos taurus [5]): 7 ×10⁷ /M
Compound: CC[C@H](NC(=O)[C@H](CCCNC(=N)N)NC(=O)CN)C(=O)N[C@H](C(=O)N(CC(=O)N[C@@H](CO)C(=O)N[C@H](C(=O)N1CCC[C@H]1C(=O)N1CCC[C@H]1C(=O)N[C@H](C(=O)N[C@@H](CC)C(=O)N[C@@H](Cc1ccccc1)C(=O)N1CCC[C@H]1C(=O)N[C@@H](CC(=O)O)C(=O)O)[C@@H](C)CC)[C@@H](C)CC)Cc1ccccc1)[C@H](C)O

half-life [6]: 1.1 h
Compound: CC[C@H](NC(=O)[C@H](CCCNC(=N)N)NC(=O)CN)C(=O)N[C@H](C(=O)N(CCCCN)CC(=O)N[C@@H](CO)C(=O)N[C@H](C(=O)N1CCC[C@H]1C(=O)N1CCC[C@H]1C(=O)N[C@H](C(=O)N[C@@H](CC)C(=O)N[C@@H](Cc1ccccc1)C(=O)N1CCC[C@H]1C(=O)N[C@@H](CC(=O)O)C(=O)O)[C@@H](C)CC)[C@@H](C)CC)[C@@H](C)O (H-GR[Abu]T[Nlys]SIPPI[Abu]FPD-OH)

metabolised at 24 h [3]: 30%
Ka (Bos taurus [7]): 1.1 ×10¹⁰ /M
half-life [6]: 5.9 h
Compound: CC[C@@H]1NC(=O)[C@H](CCCNC(=N)N)NC(=O)CNC(=O)[C@H](CC(=O)O)NC(=O)[C@@H]2CCCN2C(=O)[C@H](Cc2ccccc2)NC(=O)[C@H](CC)NC(=O)[C@H]([C@@H](C)CC)NC(=O)[C@@H]2CCCN2C(=O)[C@@H]2CCCN2C(=O)[C@H]([C@@H](C)CC)NC(=O)[C@H](CO)NC(=O)[C@H](Cc2ccccc2)NC(=O)[C@H]([C@@H](C)O)NC1=O (cyclo([Abu]FPDGR[Abu]TFSIPPI))

half-life [6]: 3.03 h
Ka (Bos taurus [1]): 2 ×10⁹ /M
Compound: CC[C@H](C)[C@@H]1NC(=O)[C@@H]2CCCN2C(=O)[C@@H]2CCCN2C(=O)[C@H]([C@@H](C)CC)NC(=O)[C@H](CO)NC(=O)[C@H](Cc2ccccc2)NC(=O)[C@H]([C@@H](C)O)NC(=O)[C@@H](NC(=O)[C@H](CCCNC(=N)N)NC(=O)CN)CSSC[C@@H](C(=O)N[C@@H](Cc2ccccc2)C(=O)N2CCC[C@H]2C(=O)N[C@@H](CC(=O)O)C(=O)O)NC1=O (H-GRCTFSIPPICFPD-OH; disulfide 3-11)

Activity [2]: inactive
Compound: CC[C@H](NC(=O)CNCCCCN)C(=O)N[C@H](C(=O)N(CCCCN)CC(=O)N[C@@H](CO)C(=O)N[C@H](C(=O)N1CCC[C@H]1C(=O)N1CCC[C@H]1C(=O)N[C@H](C(=O)N[C@@H](CC)C(=O)N[C@@H](Cc1ccccc1)C(=O)N1CCC[C@@H]1C(=O)N[C@@H](CC(=O)O)C(=O)O)[C@@H](C)CC)[C@@H](C)CC)[C@H](C)O

half-life [6]: 1.25 h
Compound: CC[C@H](NC(=O)[C@H](CCCNC(=N)N)NC(=O)CN)C(=O)N[C@H](C(=O)N[C@@H](Cc1ccccc1)C(=O)N[C@@H](CO)C(=O)N[C@H](C(=O)N1CCC[C@H]1C(=O)N1CCC[C@H]1C(=O)N[C@H](C(=O)N[C@@H](CC)C(=O)N[C@@H](Cc1ccccc1)C(=O)N1CCC[C@H]1C(=O)N[C@@H](CC(=O)O)C(=O)O)[C@@H](C)CC)[C@@H](C)CC)[C@@H](C)O

half-life [6]: 1.37 h
Compound: CC[C@@H]1NC(=O)[C@H](CCCNC(=N)N)NC(=O)CNC(=O)[C@H](CC(=O)O)NC(=O)[C@@H]2CCCN2C(=O)[C@H](Cc2ccccc2)NC(=O)[C@H](CC)NC(=O)[C@H]([C@@H](C)CC)NC(=O)[C@@H]2CCCN2C(=O)[C@@H]2CCCN2C(=O)[C@H]([C@@H](C)CC)NC(=O)[C@H](CO)NC(=O)CN(CCCCN)C(=O)[C@H]([C@@H](C)O)NC1=O

Activity [2]: inactive
Compound: CC[C@H](NC(=O)[C@@H](NC(=O)[C@@H]1CCCN1C(=O)[C@@H]1CCCN1C(=O)[C@@H](NC(=O)[C@H](CO)NC(=O)CN(CCCCN)C(=O)[C@@H](NC(=O)[C@H](CC)NC(=O)[C@@H](N)CCCCN)[C@H](C)O)[C@@H](C)CC)[C@@H](C)CC)C(=O)N[C@@H](Cc1ccccc1)C(=O)N1CCC[C@H]1C(=O)N[C@@H](CC(=O)O)C(=O)O

Ka [8]: 1.9 ×10⁸ /M
Compound: CC[C@@H]1NC(=O)[C@H](CCCNC(=N)N)NC(=O)CNC(=O)[C@H](CC(=O)O)NC(=O)[C@@H]2CCCN2C(=O)[C@H](Cc2ccccc2)NC(=O)[C@H](CC)NC(=O)[C@H]([C@@H](C)CC)NC(=O)[C@@H]2CCCN2C(=O)[C@@H]2CCCN2C(=O)[C@H]([C@@H](C)CC)NC(=O)[C@H](CO)NC(=O)CN(CCCCN)C(=O)[C@H]([C@H](C)O)NC1=O

half-life [6]: 5.87 h
Compound: CC[C@@H]1NC(=O)[C@H](CCCNC(=N)N)NC(=O)CNC(=O)[C@H](CC(=O)O)NC(=O)[C@@H]2CCCN2C(=O)[C@H](Cc2ccccc2)NC(=O)[C@H](CC)NC(=O)[C@H]([C@@H](C)CC)NC(=O)[C@@H]2CCCN2C(=O)[C@@H]2CCCN2C(=O)[C@H]([C@@H](C)CC)NC(=O)[C@H](CO)NC(=O)CN(Cc2ccccc2)C(=O)[C@H]([C@@H](C)O)NC1=O

half-life [6]: 7.25 h
Ka (Bos taurus [1]): 4.9 ×10⁶ /M
Compound: CC[C@H](C)[C@@H]1NC(=O)[C@@H]2CCCN2C(=O)[C@@H]2CCCN2C(=O)[C@H]([C@@H](C)CC)NC(=O)[C@H](CO)NC(=O)[C@H](CCCCN)NC(=O)[C@H]([C@@H](C)O)NC(=O)[C@@H]2CSSC[C@H](NC1=O)C(=O)N[C@@H](Cc1ccccc1)C(=O)N1CCC[C@H]1C(=O)N[C@@H](CC(=O)O)C(=O)NCC(=O)N[C@@H](CCCNC(=N)N)C(=O)N2
